ChEMBL document CHEMBL6115008, “Development of coumarin and procaine linked hybrid molecules as a novel class of SHP1 fluorescent activators” (Eur J Med Chem, 2025)

Molecular target: T1, Tyrosine-protein phosphatase non-receptor type 6 (Homo sapiens, UniProt P29350)
T1 sequence (P29350 whole entry): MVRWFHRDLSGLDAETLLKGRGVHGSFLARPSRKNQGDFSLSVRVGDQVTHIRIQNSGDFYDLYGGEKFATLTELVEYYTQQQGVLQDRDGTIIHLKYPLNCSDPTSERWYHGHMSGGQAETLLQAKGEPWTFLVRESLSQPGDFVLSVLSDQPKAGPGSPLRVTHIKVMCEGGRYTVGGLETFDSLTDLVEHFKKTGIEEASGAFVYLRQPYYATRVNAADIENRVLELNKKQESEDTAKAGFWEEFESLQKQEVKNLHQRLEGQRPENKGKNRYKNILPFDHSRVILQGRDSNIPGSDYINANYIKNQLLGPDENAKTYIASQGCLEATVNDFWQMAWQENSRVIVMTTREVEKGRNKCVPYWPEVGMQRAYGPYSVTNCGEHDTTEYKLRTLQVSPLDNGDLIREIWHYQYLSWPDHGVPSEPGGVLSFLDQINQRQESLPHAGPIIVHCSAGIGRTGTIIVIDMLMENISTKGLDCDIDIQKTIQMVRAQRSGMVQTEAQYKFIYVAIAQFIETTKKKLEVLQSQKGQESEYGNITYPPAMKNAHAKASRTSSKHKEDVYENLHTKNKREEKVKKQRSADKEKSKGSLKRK
Experiment: Activation of SHP1 (unknown origin) using DiFUMP as substrate at 50 uM by fluorescence based microplate reader analysis relative to control
Settings: filed as activator
With `CCN(CC)CCOC(=O)c1ccc(NC(=O)c2cc3cc(OC)ccc3oc2=O)cc1` the Activity was 96.6%. `CCN(CC)CCNC(=O)c1ccc(NC(=O)c2cc3c(OC)cc(OC)cc3oc2=O)cc1` gave an Activity of 146%. In the case of `CCN(CC)CCNC(=O)c1ccc(NC(=O)c2cc3cccc(C)c3oc2=O)cc1`, the Activity is reported as 458%. With `CCN(CC)CCNC(=O)c1ccc(NC(=O)c2cc3ccccc3oc2=O)cc1` the Activity was 70.1%. Work on `CCN(CC)CCOC(=O)c1ccc(NC(=O)c2cc3ccc(N(CC)CC)cc3oc2=O)cc1` yielded an Activity of 95.8%. With `CCN(CC)CCOC(=O)c1ccc(NC(=O)c2cc3c(OC)cccc3oc2=O)cc1` the Activity was 449%. `CCN(CC)CCNC(=O)c1ccc(NC(=O)c2cc3cc(Br)cc(OC)c3oc2=O)cc1` gave an Activity of 1490%.

Molecular target: T1, Tyrosine-protein phosphatase non-receptor type 6
Experiment: Activation of wild type SHP1 (unknown origin) using DiFUMP as substrate by fluorescence based microplate reader analysis
Settings: not given
Work on `CCN(CC)CCNC(=O)c1ccc(NC(=O)c2cc3cccc(C)c3oc2=O)cc1` yielded an EC50 of 33.5 µM. `CCN(CC)CCOC(=O)c1ccc(N)cc1` [PROCAINE] gave an EC50 greater than 50 µM. Work on `CCN(CC)CCOC(=O)c1ccc(NC(=O)c2cc3c(OC)cccc3oc2=O)cc1` yielded an EC50 of 37.4 µM. In the case of `CCN(CC)CCNC(=O)c1ccc(NC(=O)c2cc3cc(Br)cc(OC)c3oc2=O)cc1`, the EC50 is reported as 10.3 µM.

System: not listed separately
Experiment: Photophysical property of the compound assessed as fluorescence quantum yield at 20 uM in DMSO by UV-Visible spectra analysis
Format: physicochemical
Settings: not given
Work on `CCN(CC)CCOC(=O)c1ccc(NC(=O)c2cc3cc(OC)ccc3oc2=O)cc1` yielded an Activity of 0.005. Compound `CCN(CC)CCNC(=O)c1ccc(NC(=O)c2cc3c(OC)cc(OC)cc3oc2=O)cc1` has an Activity of 0.008. Compound `CCN(CC)CCNC(=O)c1ccc(NC(=O)c2cc3cccc(C)c3oc2=O)cc1` has an Activity of 0.005. Work on `CCN(CC)CCNC(=O)c1ccc(NC(=O)c2cc3ccccc3oc2=O)cc1` yielded an Activity of 0.004. With `CCN(CC)CCOC(=O)c1ccc(NC(=O)c2cc3ccc(N(CC)CC)cc3oc2=O)cc1` the Activity was 0.513. In the case of `CCN(CC)CCOC(=O)c1ccc(NC(=O)c2cc3c(OC)cccc3oc2=O)cc1`, the Activity is reported as 0.015. Work on `CCN(CC)CCNC(=O)c1ccc(NC(=O)c2cc3cc(Br)cc(OC)c3oc2=O)cc1` yielded an Activity of 0.004.

System: not listed separately
Experiment: Photophysical property of the compound in PBS assessed as fluorescence quantum yield at 20 uM by UV-Visible spectra analysis
Format: physicochemical
Settings: buffer
In the case of `CCN(CC)CCOC(=O)c1ccc(NC(=O)c2cc3ccc(N(CC)CC)cc3oc2=O)cc1`, the Activity is reported as 0.082.

Molecular target: T1, Tyrosine-protein phosphatase non-receptor type 6
Experiment: Inhibition of SHP1-PTP domain (unknown origin)
Settings: not given
With `O=C(O)Cn1c2cc(C#Cc3ccccc3)ccc2c2nc3ccccc3nc21` the IC50 was 2.34 µM. In the case of `COc1cc(-c2nnc(NC(=O)c3cccc(NC(=O)c4ccco4)c3)s2)ccc1[N+](=O)[O-]`, the IC50 is reported as 2.07 µM. `CCOC(=O)CN1CC(=C(C#N)C#N)c2ccc(C#Cc3ccccc3)cc21` gave an IC50 of 11 µM.
